In brackets after ≈: the same amount, converted by molar mass. Several values for one entry are separate records, joined by “and”; a condition that tells them apart may be missing. Equal values may be shown once.
Assays:
Experiment in all cases: ≥ marks a high value that may be exact or a test limit, other limits are often not marked, values filed in µg/mL are converted to µM
[1] = system: Candida albicans CGMCC 2.2086
[2] = system: Candida parapsilosis CGMCC 2.3989
[3] = system: Candida tropicalis CGMCC 2.1975
Escherichia coli 078 = system: Escherichia coli 078
Escherichia coli K88 = system: Escherichia coli K88
Escherichia coli K99 = system: Escherichia coli K99
Escherichia coli UB1005 = system: Escherichia coli UB1005
[4] = system: Pseudomonas aeruginosa ATCC 27853
[5] = system: Salmonella enterica subsp. enterica serovar Pullorum ATCC 7913
[6] = system: Salmonella enterica subsp. enterica serovar Typhimurium ATCC 14028
[7] = system: Salmonella enterica subsp. enterica serovar Typhimurium C77-31
[8] = system: Staphylococcus aureus ATCC 25923
[9] = system: Staphylococcus aureus ATCC 43300
[10] = system: Staphylococcus epidermidis ATCC 12228
Escherichia coli INV-a = system: Escherichia coli INV-a
[11] = system: Lactococcus lactis MG1363
[12] = system: Escherichia coli ATCC 25922
[13] = system: Escherichia coli O157:H7 CICC 21530
[14] = system: Lacticaseibacillus rhamnosus 1.0911
[15] = system: Lacticaseibacillus rhamnosus 1.0936
[16] = system: Lacticaseibacillus rhamnosus 1.9021
[17] = system: Lacticaseibacillus rhamnosus 8014
[18] = system: Pseudomonas aeruginosa PAO1
[19] = system: Salmonella enterica subsp. enterica serovar Choleraesuis CVCC 503
[20] = system: Salmonella enterica subsp. enterica serovar Pullorum C79-13
[21] = system: Staphylococcus aureus ATCC 29213
[22] = system: Streptococcus agalactiae BNCC 185941
[23] = system: Acinetobacter calcoaceticus ATCC 23055
[24] = system: Acinetobacter calcoaceticus C402
[25] = system: Burkholderia cepacia ATCC 25416
Candida albicans CAN105 = system: Candida albicans CAN105
Corynebacterium xerosis = system: Corynebacterium xerosis
[26] = system: Enterobacter cloacae ATCC 13047
[27] = system: Enterobacter cloacae C601
[28] = system: Enterococcus faecalis ATCC 29212
[29] = system: Enterococcus faecalis C625
Escherichia coli KF111 = system: Escherichia coli KF111
Escherichia coli KF130 = system: Escherichia coli KF130
[30] = system: Listeria monocytogenes NCTC 7973
[31] = system: Mycobacterium tuberculosis H37Rv
[32] = system: Pseudomonas aeruginosa H187
[33] = system: Pseudomonas aeruginosa H374
[34] = system: Pseudomonas aeruginosa H547
[35] = system: Pseudomonas aeruginosa H744
[36] = system: Pseudomonas aeruginosa K799
[37] = system: Pseudomonas aeruginosa Z61
[38] = system: Salmonella enterica subsp. enterica serovar Typhimurium ATCC 14028s
[39] = system: Staphylococcus aureus K147
[40] = system: Staphylococcus aureus SAP 0017
[41] = system: Staphylococcus epidermidis
[42] = system: Staphylococcus haemolyticus
[43] = system: Stenotrophomonas maltophilia ATCC 13637
[44] = system: Streptococcus pyogenes ATCC 19615
[45] = system: Legionella pneumophila Lens

`CC[C@H](C)[C@H](NC(=O)[C@H](CCCN=C(N)N)NC(=O)[C@H](C)NC(=O)[C@H](C)N)C(=O)N[C@H](C(=O)N[C@@H](CC(C)C)C(=O)N[C@@H](CCCN=C(N)N)C(=O)N[C@H](C(=O)N[C@@H](CCCN=C(N)N)C(=O)N[C@@H](Cc1ccccc1)C(=O)N[C@@H](CCCN=C(N)N)C(N)=O)[C@@H](C)O)[C@@H](C)CC` [AARIILRTRFR] showed an MIC [1] of no less than 128 µM, an MIC [2] of no less than 64 µM and an MIC [3] of no less than 32 µM. The MIC (Escherichia coli 078) was 4 µM (≈ 5.49 µg/mL), the MIC (Escherichia coli K88) was 4 µM (≈ 5.49 µg/mL) and the MIC (Escherichia coli K99) was 4 µM (≈ 5.49 µg/mL). It also gave an MIC (Escherichia coli UB1005) of 4 µM (≈ 5.49 µg/mL), an MIC [4] greater than 128 µM and an MIC [5] of 8 µM (≈ 11 µg/mL). For the same compound, the MIC [6] was 16 µM (≈ 21.9 µg/mL), the MIC [7] was 16 µM (≈ 21.9 µg/mL) and the MIC [8] was 16 µM (≈ 21.9 µg/mL). It also gave an MIC [9] of 16 µM (≈ 21.9 µg/mL) and an MIC [10] of 16 µM (≈ 21.9 µg/mL).
With `CC[C@H](C)[C@H](NC(=O)CNC(=O)[C@H](CCCCN)NC(=O)[C@H](Cc1c[nH]c2ccccc12)NC(=O)[C@H](CC(N)=O)NC(=O)[C@H](C)N)C(=O)N[C@@H](C)C(=O)N[C@@H](C)C(=O)N[C@@H](CCSC)C(=O)N[C@@H](C)C(=O)N[C@@H](CCCCN)C(=O)N[C@@H](CCCCN)C(=O)N[C@@H](CC(C)C)C(=O)N[C@@H](CC(C)C)C(N)=O` [ANWKGIAAMAKKLL] the MIC (Escherichia coli INV-a) was no less than 33 µM and the MIC [11] was 18 µM (≈ 27.3 µg/mL).
Work on `CC(C)C[C@H](NC(=O)CNC(=O)[C@H](Cc1c[nH]c2ccccc12)NC(=O)CNC(=O)[C@H](CC(C)C)NC(=O)[C@H](CCCCN)NC(=O)[C@@H](N)CCCCN)C(=O)N[C@@H](CCCCN)C(=O)N[C@@H](CCCCN)C(N)=O` [KKLGWGLKK] yielded an MIC [12] greater than 128 µM, an MIC (Escherichia coli K88) of no less than 128 µM and an MIC [13] of no less than 128 µM. It also gave an MIC [14] of no less than 128 µM, an MIC [15] of no less than 128 µM and an MIC [16] of no less than 128 µM. The MIC [17] was no less than 128 µM, the MIC [4] was greater than 128 µM and the MIC [18] was greater than 128 µM. The MIC [19] was no less than 128 µM, the MIC [20] was no less than 128 µM and the MIC [6] was greater than 128 µM. It also gave an MIC [21] greater than 128 µM, an MIC [9] greater than 128 µM and an MIC [10] greater than 128 µM. It also gave an MIC [22] of no less than 128 µM.
For `CC[C@H](C)[C@H](NC(=O)[C@H](CC(C)C)NC(=O)[C@@H]1CCCN1C(=O)[C@H](CCCCN)NC(=O)[C@H](C)NC(=O)[C@@H](NC(=O)[C@@H](NC(=O)[C@@H](NC(=O)[C@@H](NC(=O)[C@H](CCCCN)NC(=O)[C@H](CCCCN)NC(=O)[C@H](C)NC(=O)[C@H](C)NC(=O)[C@H](CO)NC(=O)[C@@H](NC(=O)[C@H](CC(C)C)NC(=O)[C@H](CCCCN)NC(=O)[C@H](CCCCN)NC(=O)[C@@H](NC(=O)[C@H](Cc1ccccc1)NC(=O)[C@H](CO)NC(=O)[C@H](CCCCN)NC(=O)[C@H](Cc1c[nH]c2ccccc12)NC(=O)[C@@H](N)CCCCN)[C@@H](C)CC)[C@@H](C)O)C(C)C)C(C)C)[C@@H](C)O)[C@@H](C)O)C(=O)N[C@@H](CO)C(=O)N[C@@H](CO)C(=O)O` [KWKSFIKKLTSAAKKVVTTAKPLISS], the MIC [23] was 0.699 µM (≈ 2 µg/mL), the MIC [24] was 2.8 µM and 1.4 µM and the MIC [25] was 22.4 µM (≈ 64 µg/mL). For the same compound, the MIC (Candida albicans CAN105) was 22.4 µM (≈ 64 µg/mL), the MIC (Corynebacterium xerosis) was 0.349 µM (≈ 1 µg/mL) and the MIC [26] was 0.699 µM (≈ 2 µg/mL). For the same compound, the MIC [27] was 2.8 µM and 1.4 µM, the MIC [28] was greater than 22.4 µM and the MIC [29] was 5.59 µM and 11.2 µM. For the same compound, the MIC (Escherichia coli KF111) was 0.699 µM (≈ 2 µg/mL), the MIC (Escherichia coli KF130) was 0.349 µM (≈ 1 µg/mL) and the MIC [30] was 5.59 µM (≈ 16 µg/mL). The MIC [31] was 0.734 µM (≈ 2.1 µg/mL), the MIC [4] was 2.8 µM and 4 µM and the MIC [32] was 11.2 µM (≈ 32 µg/mL). For the same compound, the MIC [33] was 0.699 µM (≈ 2 µg/mL), the MIC [34] was 1.4 µM (≈ 4 µg/mL) and the MIC [35] was 0.699 µM (≈ 2 µg/mL). The MIC [36] was 1.4 µM (≈ 4 µg/mL), the MIC [37] was 1.05 µM (≈ 3 µg/mL) and the MIC [38] was 1.05 µM (≈ 3 µg/mL). For the same compound, the MIC [8] was 22.4 µM (≈ 64 µg/mL), the MIC [39] was 22.4 µM (≈ 64 µg/mL) and the MIC [40] was 22.4 µM (≈ 64 µg/mL). For the same compound, the MIC [41] was 11.2 µM (≈ 32 µg/mL), the MIC [42] was 22.4 µM (≈ 64 µg/mL) and the MIC [43] was 0.699 µM (≈ 2 µg/mL). It also gave an MIC [44] of 5.59 µM (≈ 16 µg/mL).
`CC[C@H](C)[C@H](NC(=O)[C@H](CC(C)C)NC(=O)CNC(=O)[C@H](CCCCN)NC(=O)[C@@H](NC(=O)[C@@H](NC(=O)[C@H](CCC(=O)O)NC(=O)[C@@H](NC(=O)[C@@H](NC(=O)[C@H](CCCCN)NC(=O)[C@H](C)NC(=O)[C@@H](NC(=O)[C@@H](NC(=O)CNC(=O)[C@H](C)NC(=O)[C@@H](N)CCSC)C(C)C)[C@@H](C)CC)[C@@H](C)CC)C(C)C)[C@@H](C)CC)C(C)C)C(=O)N[C@@H](CC(=O)O)C(=O)N[C@@H](CCC(N)=O)C(=O)N[C@@H](Cc1ccccc1)C(=O)N[C@H](C(=O)N[C@@H](CCC(N)=O)C(=O)N[C@@H](CCCCN)C(=O)O)[C@@H](C)O` [MAGVIAKIVEIVKGLIDQFTQK] was tested, and the MIC [45] was 1.3 µM (≈ 3.12 µg/mL).
